How the values were obtained:
[1] = system: induction of TAT by dexamethasone in HepG2 cells; experiment: Hep G2 TAT assay (inhibition of dexamethasone-induced TAT); type: cell-based, human; details: challenge of 100 nM dexamethasone, IC50 converted to Ki by Cheng and Prusoff equation
[2] = biological target: glucocorticoid receptor (GR) recombinant ligand binding domain (LBD) (Homo sapiens (Human), UniProt P04150); experiment: GR binding fluorescence polarisation (FP) assay; details: displacement of fluorescently tagged ligand
Procedure: Binding of test compounds to the glucocorticoid receptor (GR) is determined using a fluorescence polarisation (FP) assay utilising a recombinant ligand binding domain (LBD) of GR. The test compounds are assessed by their ability to displace a fluorescently tagged ligand and detection of the resulting decrease in fluorescence polarisation.

[3] = system: induction of TAT by dexamethasone in HepG2 cells; experiment: Hep G2 TAT assay (inhibition of dexamethasone-induced TAT); type: cell-based, human; details: agonist induction of TAT, read-out: average EC50 value (half-maximal effect) of TAT production

Sequence of glucocorticoid receptor (GR) recombinant ligand binding domain (LBD) (P04150 524-758): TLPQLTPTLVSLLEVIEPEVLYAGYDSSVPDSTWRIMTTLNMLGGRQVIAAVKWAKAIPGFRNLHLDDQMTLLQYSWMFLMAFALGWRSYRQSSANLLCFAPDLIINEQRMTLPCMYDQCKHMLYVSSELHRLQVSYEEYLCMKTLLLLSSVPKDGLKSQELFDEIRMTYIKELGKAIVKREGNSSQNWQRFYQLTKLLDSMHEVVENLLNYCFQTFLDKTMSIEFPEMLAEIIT

## Cc1cc2c(cnn2-c2cnn(C(F)(F)F)c2)cc1C1(Cc2ccccc2)CCN(S(=O)(=O)c2cnn(C)n2)C1 (centres unmarked) [Example 254, 5-(3-benzyl-1-((2-methyl-2H-1,2,3-triazol-4-yl)sulfonyl)pyrrolidin-3-yl)-6-methyl-1-(1-(trifluoromethyl)-1H-pyrazol-4-yl)-1H-indazole]
[1]
  Ki: 44 nM
[2]
  IC50: 87 nM

## CCCn1cc(S(=O)(=O)N2CCC(Cc3ccccc3)(c3cc4cnn(-c5ccc(F)cc5)c4cc3OC)C2)cn1 (centres unmarked) [Example 162]
[1]
  Ki: 16 nM
[2]
  IC50: 18 nM

## Cc1cc2c(cnn2-c2ccc(F)cc2)cc1N1CCN(S(C)(=O)=O)C2(CC2)C1 [Example 58]
[1]
  Ki: 321 nM
[2]
  IC50: 32 nM

## CCCn1cc(S(=O)(=O)N2C3CC2CN(c2cc4cnn(-c5ccc(F)cc5)c4cc2C)C3)cn1 [Example 73]
[1]
  Ki: 306 nM
[2]
  IC50: 151 nM

## CCCn1cc(S(=O)(=O)N2CCC(Cc3ccccc3)(c3cc4cnn(-c5ccc(F)cc5)c4cc3C)CC2)cn1 [Example 25, 5-(4-benzyl-1-((1-propyl-1H-pyrazol-4-yl)sulfonyl)piperidin-4-yl)-1-(4-fluorophenyl)-6-methyl-1H-indazole]
[1]
  Ki: 29 nM
[2]
  IC50: 67 nM

## COc1cc2c(cnn2-c2ccc(=O)n(C)c2)cc1C1(Cc2ccccc2)CCN(S(=O)(=O)C2CC2)C1 (centres unmarked) [Example 321]
[1]
  Ki: 270 nM
[2]
  IC50: 14 nM

## Cc1cc2c(cnn2-c2cnn(C)c2)cc1C1(Cc2ccccc2)CCN(S(=O)(=O)c2cnn(C)n2)C1 (centres unmarked) [Example 249, 5-(3-benzyl-1-((2-methyl-2H-1,2,3-triazol-4-yl)sulfonyl)pyrrolidin-3-yl)-6-methyl-1-(1-methyl-1H-pyrazol-4-yl)-1H-indazole]
[1]
  Ki: 39 nM
[2]
  IC50: 4.8 nM

## COc1cc2c(cnn2-c2ccc(=O)n(C)c2)cc1C1(Cc2ccccc2)CCN(S(=O)(=O)c2cnn(C)n2)C1 (centres unmarked) [Example 265, 5-(5-(3-benzyl-1-((2-methyl-2H-1,2,3-triazol-4-yl)sulfonyl)pyrrolidin-3-yl)-6-methoxy-1H-indazol-1-yl)-1-methylpyridin-2(1H)-one]
[1]
  Ki: 120 nM
[2]
  IC50: 16 nM

## Cc1cc2c(cnn2-c2cnn(C)c2C)cc1C1(Cc2ccccc2)CCN(S(=O)(=O)c2cnn(C)n2)C1 (centres unmarked) [Example 253, 5-(3-benzyl-1-((2-methyl-2H-1,2,3-triazol-4-yl)sulfonyl)pyrrolidin-3-yl)-1-(1,5-dimethyl-1H-pyrazol-4-yl)-6-methyl-1H-indazole]
[1]
  Ki: 240 nM
[2]
  IC50: 24 nM

## Cc1cc2c(cnn2-c2ccc(F)cc2)cc1C1(Cc2ccc(C(F)(F)F)cn2)CCN(S(=O)(=O)c2cnn(C)c2)C1 (centres unmarked) [Example 169]
[1]
  Ki: 159 nM
[2]
  IC50: 217 nM

## C[C@@H]1CN(c2ccc3c(cnn3-c3ccc(F)cc3)c2)CCN1S(=O)(=O)c1cnn(CC2CC2)c1 [Example 39]
[1]
  Ki: 242 nM
[2]
  IC50: 81 nM

## Cc1cc2c(cnn2-c2ccc(=O)n(C)c2)cc1C1(Cc2ccccc2)CCN(S(=O)(=O)c2cccc(C(F)(F)F)n2)C1 (centres unmarked) [Example 303, 5-(5-(3-benzyl-1-((6-(trifluoromethyl)pyridin-2-yl)sulfonyl)pyrrolidin-3-yl)-6-methyl-1H-indazol-1-yl)-1-methylpyridin-2(1H)-one]
[1]
  Ki: 24 nM
[2]
  IC50: 4.4 nM

## Cc1cc2c(cnn2-c2ccc(=O)n(C)c2)cc1C1(Cc2ccccc2)CCN(S(=O)(=O)c2c(F)cccc2F)C1 (centres unmarked) [Example 315, 5-(5-(3-benzyl-1-((2,6-difluorophenyl)sulfonyl)pyrrolidin-3-yl)-6-methyl-1H-indazol-1-yl)-1-methylpyridin-2(1H)-one]
[1]
  Ki: 29 nM
[2]
  IC50: 6.7 nM

## Cc1cc2c(cnn2-c2ccc(=O)n(C)c2)cc1C1(Cc2ccccc2)CCN(S(=O)(=O)c2ccc(F)cc2F)C1 (centres unmarked) [Example 314, 5-(5-(3-benzyl-1-((2,4-difluorophenyl)sulfonyl)pyrrolidin-3-yl)-6-methyl-1H-indazol-1-yl)-1-methylpyridin-2(1H)-one]
[1]
  Ki: 56 nM
[2]
  IC50: 11 nM

## COc1cc2c(cnn2-c2ccc(F)cc2)cc1C1(Cc2ccccc2)CCN(S(C)(=O)=O)C1 (centres unmarked) [Example 160]
[1]
  Ki: 24 nM
[2]
  IC50: 5 nM

## CS(=O)(=O)N1CCC(Cc2ccccc2)(c2ccc3c(cnn3-c3ccc(F)cc3)c2)C1=O (centres unmarked) [Example 338, 3-benzyl-3-(1-(4-fluorophenyl)-1H-indazol-5-yl)-1-(methylsulfonyl)pyrrolidin-2-one]
[1]
  Ki: 120 nM
[2]
  IC50: 26 nM

## Cc1cc2c(cnn2-c2ccc(F)cc2)cc1C1(Cc2ccccc2)CCN(Cc2ccccc2)C1=O (centres unmarked) [Example 337, 1,3-dibenzyl-3-(1-(4-fluorophenyl)-6-methyl-1H-indazol-5-yl)pyrrolidin-2-one]
[1]
  Ki: 110 nM
[2]
  IC50: 250 nM

## C[C@@H]1C[C@H]2[C@@H]3CCC4=CC(=O)C=C[C@]4(C)[C@@]3(F)[C@@H](O)C[C@]2(C)[C@@]1(O)C(=O)CO [Dexamethasone, dexamethasone]
[3]
  EC50: 20 nM

## Cc1cc2c(cnn2-c2ccc(F)cc2)cc1C1(Cc2ccccc2)CCN(S(=O)(=O)c2cnn(C)c2)C1 (centres unmarked) [Example 153]
[1]
  Ki: 26 nM
[2]
  IC50: 11 nM

## Cc1cc2c(cnn2-c2ccc(F)cc2)cc1C1(Cc2ccccc2)CCN(C(=O)c2ccccc2)C1 (centres unmarked) [Example 193, (3-benzyl-3-(1-(4-fluorophenyl)-6-methyl-1H-indazol-5-yl)pyrrolidin-1-yl)(phenyl)methanone]
[1]
  Ki: 25 nM
[2]
  IC50: 28 nM

## Cc1cc2c(cnn2-c2cnn(C)c2)cc1C1(Cc2ccccc2)CCN(S(=O)(=O)c2ccc(F)c(F)c2)C1 (centres unmarked) [Example 272, 5-(3-benzyl-1-((3,4-difluorophenyl)sulfonyl)pyrrolidin-3-yl)-6-methyl-1-(1-methyl-1H-pyrazol-4-yl)-1H-indazole]
[1]
  Ki: 29 nM
[2]
  IC50: 22 nM

## Cc1cc2c(cnn2-c2ccc(=O)n(C)c2)cc1C1(Cc2ccc(F)cc2)CCN(S(=O)(=O)c2cnn(C)n2)C1 (centres unmarked) [Example 324, 5-(5-(3-(4-fluorobenzyl)-1-((2-methyl-2H-1,2,3-triazol-4-yl)sulfonyl)pyrrolidin-3-yl)-6-methyl-1H-indazol-1-yl)-1-methylpyridin-2(1H)-one]
[1]
  Ki: 64 nM
[2]
  IC50: 7.5 nM

## Cc1cc2c(cnn2-c2ccc(=O)n(C)c2)cc1C1(Cc2ccccc2)CCN(S(=O)(=O)c2ccccc2F)C1 (centres unmarked) [Example 301, 5-(5-(3-benzyl-1-((2-fluorophenyl)sulfonyl)pyrrolidin-3-yl)-6-methyl-1H-indazol-1-yl)-1-methylpyridin-2(1H)-one]
[1]
  Ki: 25 nM
[2]
  IC50: 4.8 nM

## Cc1cc2c(cnn2-c2ccc(F)cc2)cc1N1CCN(S(=O)(=O)c2cnn(CC3CC3)c2)[C@H](C)C1 [Example 43]
[1]
  Ki: 467 nM
[2]
  IC50: 95 nM

## CCCn1cc(S(=O)(=O)N2CCC(Cc3ccccc3)(c3cc4cnn(-c5ccc(=O)n(C)c5)c4cc3C)C2)cn1 (centres unmarked) [Example 318, 5-(5-(3-benzyl-1-((1-propyl-1H-pyrazol-4-yl)sulfonyl)pyrrolidin-3-yl)-6-methyl-1H-indazol-1-yl)-1-methylpyridin-2(1H)-one]
[1]
  Ki: 48 nM
[2]
  IC50: 5.1 nM

## CCCn1cc(NS(=O)(=O)C2CCN(c3cc4cnn(-c5ccc(F)cc5)c4cc3C)C2)cn1 (centres unmarked) [Example 29, 1-(1-(4-fluorophenyl)-6-methyl-1H-indazol-5-yl)-N-(1-propyl-1H-pyrazol-4-yl)pyrrolidine-3-sulfonamide]
[1]
  Ki: 210 nM
[2]
  IC50: 9 nM

## Cc1cc2c(cnn2-c2ccc(F)cc2)cc1C1(Cc2ccccc2)CCN(S(C)(=O)=O)C1=O (centres unmarked) [Example 339, 3-benzyl-3-(1-(4-fluorophenyl)-6-methyl-1H-indazol-5-yl)-1-(methylsulfonyl)pyrrolidin-2-one]
[1]
  Ki: 120 nM
[2]
  IC50: 44 nM

## Cc1cc2c(cnn2-c2ccnn2C)cc1C1(Cc2ccccc2)CCN(S(=O)(=O)c2cnn(C)n2)C1 (centres unmarked) [Example 260, 5-(3-benzyl-1-((2-methyl-2H-1,2,3-triazol-4-yl)sulfonyl)pyrrolidin-3-yl)-6-methyl-1-(1-methyl-1H-pyrazol-5-yl)-1H-indazole]
[1]
  Ki: 350 nM
[2]
  IC50: 150 nM

## Cc1cc2c(cnn2-c2ccc(=O)n(C)c2)cc1C1(Cc2ccccc2)CCN(S(=O)(=O)c2ccc(F)cc2)C1 (centres unmarked) [Example 298, 5-(5-(3-benzyl-1-((4-fluorophenyl)sulfonyl)pyrrolidin-3-yl)-6-methyl-1H-indazol-1-yl)-1-methylpyridin-2(1H)-one]
[1]
  Ki: 37 nM
[2]
  IC50: 3.6 nM

## Cc1cc2c(cnn2-c2ccc(=O)n(C)c2)cc1C1(Cc2ccccc2)CCN(S(=O)(=O)c2cccc(C#N)c2)C1 (centres unmarked) [Example 295, 3-((3-benzyl-3-(6-methyl-1-(1-methyl-6-oxo-1,6-dihydropyridin-3-yl)-1H-indazol-5-yl)pyrrolidin-1-yl)sulfonyl)benzonitrile]
[1]
  Ki: 62 nM
[2]
  IC50: 6.3 nM

## Cc1cc2c(cnn2-c2ccc(=O)n(C)c2)cc1C1(Cc2ccccc2)CCN(S(=O)(=O)c2ccccc2)C1 (centres unmarked) [Example 294, 5-(5-(3-benzyl-1-(phenylsulfonyl)pyrrolidin-3-yl)-6-methyl-1H-indazol-1-yl)-1-methylpyridin-2(1H)-one]
[1]
  Ki: 41 nM
[2]
  IC50: 4 nM

## COc1cc2c(cnn2-c2ccc(F)cc2)cc1C1(Cc2ccccc2)CCN(S(=O)(=O)C2CC2)C1 (centres unmarked) [Example 166]
[1]
  Ki: 26 nM
[2]
  IC50: 14 nM

## CCCn1cc(S(=O)(=O)N2CCC(c3ccc4c(cnn4-c4ccc(F)cc4)c3)C[C@H]2C)cn1 (stereo partly drawn) [Example 8, 1-(4-fluorophenyl)-5-((2R)-2-methyl-1-((1-propyl-1H-pyrazol-4-yl)sulfonyl)piperidin-4-yl)-1H-indazole]
[1]
  Ki: 238 nM
[2]
  IC50: 214 nM

Source: patent publication US11787780B2 (CORCEPT THERAPEUTICS INCORPORATED, priority 2020, dated 2023)
